In patent publication US4124766A, “Substituted 3-(4-imidazolylmethylene)carbazic and thiocarbazic acid esters” (American Cyanamid Company, priority 1977, dated 1978):

What was measured:
[1] = tested on: monkey lung cyclic AMP phosphodiesterase; experiment: Monkey lung phosphodiesterase inhibition test (B); assay type: biochemical, African green monkey; parameters: key to Monkey Lung Phosphodiesterase (B): Active: A compound is considered active if it inhibits more than theophylline, that is, to 50% of control at 1 mM concentration of compound, or to 80% of control for 0.05 mM concentration of compound; conditions: for Monkey Lung Phosphodiesterase (B): test compound usually 1 mM or 0.1 mM, active = inhibits more than theophylline
Procedure: Lung parenchyma of African green monkeys is homogenized in a Waring blender and centrifuged at 40,000 × gravity for 20 minutes. The supernatant is brought to 70% saturation of ammonium sulfate, centrifuged and the pellet redissolved and dialysed, before aliquoting and storage at -20° C.
Phosphodiesterase is assayed by the method of Thompson and Appleman, ibid. An assay tube contains a 0.4 ml. solution of the following: 45 mM tris-HCl buffer, pH 7.4, 6.25 mM MgCl2, 0.1 mM dithioerythritol, 10^-6 M cyclic AMP, 0.1 uCi [^3 H]-cyclic AMP, and test compound at the desired concentration (usually 1 mM or 0.1 mM). Compounds not readily soluble in water are dissolved at 40 times the desired concentration in methanol, and diluted 20 times with water. If the compound is not dissolved at this time, it is suspended by sonication before being diluted 1:2 into the assay tube. In this case the activity of the enzyme in the presence of the compound is compared to a solvent control (2.5% methanol), although the solvent alone has negligible effect. The reaction is initiated by addition of enzyme and proceedes at 25° C. for 20 minutes. It is terminated by incubation at 100° C. for 2 minutes. The tubes are cooled to 25° C., 0.8 ug of 5'-nucleotidase (Crotolus adamantus toxin) is added to each and the tubes incubated at 25° C. for 30 minutes. A one milliliter suspension of Bio-Rad Labs. AGIX8® (about 0.5 ml. of settled resin) is added, the tubes centrifuged at 900 × gravity for 10 minutes and an aliquot of supernatant removed for scintillation counting. The inhibition by the test compound is calculated as: [formula] where `compound` is the cpm in the presence of compound, `control` is the cpm in the absence of compound, and `blank` is the cpm in the absence of enzyme. […] For this reason, control tubes which contained [^3 H]-AMP instead of [^3 H]-cyclic AMP are run in parallel. A correction of the apparent phosphodiesterase activity is made for the rare compound which inhibited the hydrolysis of AMP.
A compound is considered active if it inhibits more than theophylline, that is, to 50% of control at 1 mM concentration of compound, or to 80% of control for 0.05 mM concentration of compound.

[2] = tested on: mouse skin PDE (cyclic-AMP phosphodiesterase); experiment: Mouse skin phosphodiesterase (PDE) inhibition test (A); assay type: biochemical, mouse (hairless mice); parameters: key to Mouse Skin Phosphodiesterase (A): Active: A compound is considered active if it inhibits more than theophylline, that is, to 50% of control at 1 mM concentration of compound, or to 80% of control for 0.05 mM concentration of compound; conditions: for Mouse Skin Phosphodiesterase (A): final concentration of test compound 10 ug./ml, active = inhibits more than theophylline

Row | Compound | Monkey Lung Phosphodiesterase (B) [1] | Mouse Skin Phosphodiesterase (A) [2] | phosphodiesterase activity, % of control (theophylline benchmark) ([1]; 1 mM concentration of compound, criterion stated for skin (A) or lung (B)) [%] | phosphodiesterase activity, % of control (theophylline benchmark) ([2]; 0.05 mM concentration of compound, criterion stated for skin (A) or lung (B)) [%]
1 | Cc1nc(C)n2c(=O)[nH]ncc12 [6,8-Dimethyl-imidazo[1,5-d]-as-triazin-4(3H)-one] | Active | Active | – | –
2 | Cc1nc(C)n2c(=S)[nH]ncc12 [6,8-Dimethyl-imidazo[1,5-d]-as-triazine-4(3H)-thione] | – | Active | – | –
3 | Cc1nc(Cc2ccccc2)n2c(=O)[nH]ncc12 [6-Benzyl-8-methyl-imidazo[1,5-d]-as-triazin-4(3H)-one] | – | Active | – | –
4 | Cc1nc(Cc2ccccc2)n2c(=S)[nH]ncc12 [6-Benzyl-8-methyl-imidazo[1,5-d]-as-triazine-4(3H)-thione] | Active | Active | – | –
5 | O=c1[nH]ncc2cnc(Cc3ccccc3)n12 [6-Benzyl-imidazo[1,5-d]-as-triazin-4(3H)-one] | – | Active | – | –
6 | O=c1[nH]ncc2cnc(-c3ccccc3)n12 [6-Phenyl-imidazo[1,5-d]-as-triazin-4(3H)-one] | – | Active | – | –
7 | CCCc1ncc2cn[nH]c(=O)n12 [6-n-Propyl-imidazo[1,5-d]-as-triazin-4(3H)-one] | – | Active | – | –
8 | CCCc1ncc2cn[nH]c(=S)n12 [6-n-Propyl-imidazo[1,5-d]-as-triazine-4(3H)-thione] | Active | Active | – | –
9 | CCCOc1ccccc1-c1ncc2cn[nH]c(=O)n12 [6-o-Propoxyphenyl-imidazo[1,5-d]-as-triazin-4(3H)-one] | – | Active | – | –
10 | Cc1nc(C(C)(C)C)n2c(=O)[nH]ncc12 [6-tert-Butyl-8-methyl-imidazo[1,5-d]-as-triazin-4(3H)-one] | Active | Active | – | –
11 | CC(C)(C)c1ncc2cn[nH]c(=O)n12 [6-tert-Butyl-imidazo[1,5-d]-as-triazin-4(3H)-one] | – | Active | – | –
12 | O=c1[nH]ncc2c(Br)nc(-c3ccccc3)n12 [8-Bromo-6-phenyl-imidazo[1,5-d]-as-triazin-4(3H)-one] | Active | Active | – | –
13 | O=c1[nH]ncc2c(Cl)nc(-c3ccccc3)n12 [8-Chloro-6-phenyl-imidazo[1,5-d]-as-triazin-4(3H)-one] | Active | Active | – | –
14 | CCCc1nc(C)c2cn[nH]c(=S)n12 [8-Methyl-6-n-propyl-imidazo[1,5-d]-as-triazine-4(3H)-thione] | Active | Active | – | –
15 | Cc1nc(-c2ccccc2)n2c(=O)[nH]ncc12 [8-Methyl-6-phenyl-imidazo[1,5-d]-as-triazin-4(3H)-one] | Active | Active | – | –
16 | Cc1nc(-c2ccccc2)n2c(=S)[nH]ncc12 [8-Methyl-6-phenyl-imidazo[1,5-d]-as-triazine-4(3H)-thione] | – | Active | – | –
17 | Cc1ncn2c(=O)[nH]ncc12 [8-Methyl-imidazo[1,5-d]-as-triazin-4(3H)-one] | – | Active | – | –
18 | Cc1ncn2c(=S)[nH]ncc12 [8-Methyl-imidazo[1,5-d]-as-triazine-4(3H)-thione] | – | Active | – | –
19 | Cn1c(=O)c2[nH]cnc2n(C)c1=O [theophylline, reference compound] | – | – | 50 | 80
